Legend:
Neutrophil elastase = target: T1, Neutrophil elastase (Homo sapiens, UniProt P08246); assay: Inhibition of human neutrophil elastase pre-incubated for 30 mins before MeO-Suc-Ala-Ala-Pro-Val-AMC substrate addition by fluorometric assay
T1 sequence (P08246 whole entry): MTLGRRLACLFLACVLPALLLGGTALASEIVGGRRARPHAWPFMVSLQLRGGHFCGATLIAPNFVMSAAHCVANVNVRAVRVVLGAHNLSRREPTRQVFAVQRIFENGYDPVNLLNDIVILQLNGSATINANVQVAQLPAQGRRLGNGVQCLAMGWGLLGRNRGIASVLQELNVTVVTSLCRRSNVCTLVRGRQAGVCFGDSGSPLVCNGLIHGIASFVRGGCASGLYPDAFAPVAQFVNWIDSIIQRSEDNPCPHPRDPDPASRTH

HEK293 = assay: Cytotoxicity against HEK293 cells; conditions: Homo sapiens
[1] = Selectivity index, ratio of cytotoxic EC50 for HEK293 cells to IC50 for human neutrophil elastase

| IC50 (Neutrophil elastase) [µM] | SMILES | EC50 (HEK293) [µM] | Selectivity Index [1] |
| --- | --- | --- | --- |
| 2.9 | CN(C)c1ccc(/C=C2\Oc3ccccc3C2=O)cc1 | > 100 | >20 |
| 5.1 | CN(C)c1ccc(/C=C2\Oc3cc(O)ccc3C2=O)cc1 | > 100 | >20 |
| – | O=C1/C(=C/c2ccc(Br)cc2)Oc2ccccc21 | > 100 | – |
| > 10 | O=C1/C(=C/c2cccc(Br)c2)Oc2ccccc21 | > 100 | >20 |
| – | O=C1/C(=C/c2ccccc2Br)Oc2ccccc21 | > 100 | – |
| – | O=C1/C(=C/c2ccc(-c3ccccc3)cc2)Oc2ccccc21 | > 100 | – |
| – | O=C1/C(=C/c2ccc(-c3ccc(F)cc3)cc2)Oc2ccccc21 | > 100 | – |
| – | O=C1/C(=C/c2ccc(-c3ccc(Cl)cc3)cc2)Oc2ccccc21 | > 100 | – |
| – | O=Cc1ccc(-c2ccc(/C=C3\Oc4ccccc4C3=O)cc2)cc1 | > 100 | – |
| – | O=C1/C(=C/c2ccc(Cc3ccccc3)cc2)Oc2ccccc21 | > 100 | – |
| – | O=C1/C(=C/c2ccc(-c3cnc4ccccc4c3)cc2)Oc2ccccc21 | > 100 | – |
| – | Nc1ccc(-c2ccc(/C=C3\Oc4ccccc4C3=O)cc2)cn1 | > 100 | – |
| – | O=C1/C(=C/c2ccc(Nc3ccccc3)cc2)Oc2ccccc21 | > 100 | – |
| – | O=C1/C(=C/c2ccc(NCc3ccccc3)cc2)Oc2ccccc21 | > 100 | – |
| > 10 | Cc1ccc(Oc2ccc(/C=C3\Oc4ccccc4C3=O)cc2)cc1 | > 100 | >20 |
| – | O=C1/C(=C/c2ccc(Oc3ccc(Cl)cc3)cc2)Oc2ccccc21 | > 100 | – |
| – | O=C1/C(=C/c2cccc(-c3ccccc3)c2)Oc2ccccc21 | > 100 | – |
| – | O=C1/C(=C/c2cccc(-c3ccc(Cl)cc3)c2)Oc2ccccc21 | > 100 | – |
| – | O=Cc1ccc(-c2cccc(/C=C3\Oc4ccccc4C3=O)c2)cc1 | > 100 | – |
| – | O=C1/C(=C/c2cccc(Cc3ccccc3)c2)Oc2ccccc21 | > 100 | – |
| – | COc1cccc2c1O/C(=C\c1ccccc1)C2=O | > 100 | – |
| – | Cc1ccc(Oc2ccc(/C=C3\Oc4cc(O)ccc4C3=O)cc2)cc1 | > 100 | – |
| – | O=C1/C(=C/c2ccc(Oc3ccc(Cl)cc3)cc2)Oc2cc(O)ccc21 | > 100 | – |
| – | O=C1/C(=C/c2cccc(-c3cnc4ccccc4c3)c2)Oc2ccccc21 | > 100 | – |
| – | O=C1/C(=C/c2ccccc2)Oc2cc(O)ccc21 | > 100 | – |

Source: ChEMBL document CHEMBL3751722, “Discovery of C-shaped aurone human neutrophil elastase inhibitors” (Medchemcomm, 2015)
